Measurements taken from patent US11466020B2, “Compounds and compositions for inhibition and elimination of Zika infection and uses for same” (Cornell University, priority 2017, dated 2022).
Entries after “also recorded” stand apart in the source; their conditions may differ. Structures can show the parent of a compound that is named as a salt.

Experiments:
ZIKV (MR766 strain) = assay: qRT-PCR of total and (-) strand vRNA in hNPCs treated 24-48 h post-infection (MR766); format: cell-based, Zika virus
Procedure: To further evaluate the therapeutic potential of HH, qRT-PCR analysis was performed to monitor the dynamics of ZIKV vRNA expression (MR766 strain) in hNPCs. Both total and replicating (−) strand of ZIKV vRNAs could be detected at 24 h post-infection, and the vRNA level kept increasing at 36 h and 48 h post-infection (FIG. 2J). […] In addition, to determine the effect of HH on hNPCs derived from different donors, 25 μM HH or DMSO control was added to the hNPCs derived from either of two additional donors at 24 h post-infection. […] Moreover, we evaluated the dynamics of ZIKV vRNA expression (FSS13025 strain) in hNPCs.
To monitor ZIKV dynamics in hNPCs, hNPCs were infected with ZIKV (MR766 strain, MOI=0.125, FSS13025 strain MOI=0.1) for 2 h, and changed to virus-free medium. The cells were maintained in NPC medium with daily medium change. The cells were lysed at the different time points and analyzed using qRT-PCR.
RNA Extraction and qRT-PCR. Total RNA of cultured cells and organs was extracted with RNeasy plus mini kit (Qiagen). vRNA from cell culture supernatant or mouse serum was extracted with QIAampe viral RNA mini kit (Qiagen). […] ZIKV vRNA levels were calculated using a standard curve generated using serial 10-fold dilutions of ZIKV vRNA.

ZIKV MR766 virus strain = assay: Prophylactic treatment of ZIKV infected SCID-Beige mice; format: in vivo
Procedure: (A) Scheme of prophylactic treatment of HH in vivo. HH was administrated to SCID-Beige mice 12 h before infection with MR766 virus strain. HH was injected at a dose of 100 mg/kg/day subcutaneously and euthanized at day 7. (B) qRT-PCR analysis of total ZIKV vRNA in liver, spleen, kidney and brain of ZIKV infected mice. n=12 for liver, spleen and kidney and 20 for brain. (C) qRT-PCR analysis of total ZIKV vRNA in brains of ZIKV-infected mice treated with vehicle (n=14) or HH (n=8). […] (D-F) Immunohistochemical analysis of adult cortex. […] Scale bar=100 μm in (D) and 10 μm in (E, F). (G-I) Immunohistochemical analysis of adult hippocampus. […] Scale bar=100 μm in (G) and 10 μm in (H, I). (J-L) Immunohistochemical analysis of adult striatum. […] Scale bar=100 μm in (J) and 10 μm in (K, L). (M, N) Immunohistochemical analysis of cellular apoptosis in adult cortex. […] Scale bar=100 μm in (M) and 10 μm in (N). (O, P) Expression kinetics of total vRNA (O) and (−) strand vRNA (P) of ZIKV (MR766 strain) in mouse brain. N is larger or equal to 4 mice at each time points. The mice were inoculated with (1×10^6 PFU) through intraperitoneal injection. The mice were euthanized at 12 h, 24 h, 3 days, 4 days and 5 days post-infection. (Q) Scheme of therapeutic treatment of HH on ZIKV (MR766 strain) infected mice. The SCID-beige mice were infected with ZIKV (MR766 strain, 1×10^6 PFU). The mice at 5 days post-infection were treated with 100 mg/kg HH or vehicle daily for 5 days. The mice were then euthanized and RNA from brains was analyzed using qRT-PCR. (R, S) qRT-PCR analysis of total vRNA (R) and (−) strand RNA (S) in the brains of mice treated with vehicle (n=8) or HH (n=8) at day 5 post-infection. (T, U) Expression kinetics of total vRNA (N) and (−) strand vRNA (O) of ZIKV (FSS13025 strain) in mouse brain. N is larger or equal to 4 mice at each time points. The mice were inoculated with (3×10^6 PFU) through intraperitoneal injection. The mice were euthanized at 12 h, 24 h, 3 days, 5 days and 7 days post-infection. (V) Scheme of therapeutic treatment of HH on ZIKV (FSS13025 strain) infected mice. The SCID-beige mice were infected with ZIKV (FSS13025 strain, 3×10^6 PFU). The mice at 7 days post-infection were treated with 100 mg/kg HH or vehicle daily for 7 days. The mice were euthanized after 7 days treatment and RNA from brains was analyzed using qRT-PCR. (W, X) qRT-PCR analysis of total vRNA (W) and (−) strand RNA (X) in the brains of mice treated with vehicle (n=8) or HH (n=11) at day 7 post-infection. p values were calculated by one-way repeated measures ANOVA or two-way repeated measures ANOVA with a Bonferroni test for multiple comparisons. *p<0.05, **p<0.01 and ***p<0.001.
PBS, the solvent used to dissolve both compounds, was used as vehicle control.
The mice were euthanized at day 7 post-infection. Total ZIKV vRNA was then quantified in multiple organs of ZIKV-infected mice treated with vehicle, including liver, spleen, kidney and brain (FIG. 4B).
The immunohistochemical analysis of mouse tissues was performed on cryosections. In brief, the tissues were fixed overnight with 4% PFA at 4° C., embedded in OCT, and then sectioned at 30 μm for immunostaining. The primary and secondary antibodies were used as described above.
Adult mouse infection and in vivo drug testing. 6-8 week old female SCID-Beige mice were infected with ZIKV (2.5×10^5 PFU in 0.5 ml culture fluid) through intraperitoneal injection.

[1] = biological target: histamine-N-methyltransferase (Homo sapiens, UniProt P50135); conditions: Horton et al. 2005; cited from earlier work
[2] = HH 100 mg/kg/day subcutaneously, hydrobromide

Chain of histamine-N-methyltransferase (P50135 whole entry, species assumed): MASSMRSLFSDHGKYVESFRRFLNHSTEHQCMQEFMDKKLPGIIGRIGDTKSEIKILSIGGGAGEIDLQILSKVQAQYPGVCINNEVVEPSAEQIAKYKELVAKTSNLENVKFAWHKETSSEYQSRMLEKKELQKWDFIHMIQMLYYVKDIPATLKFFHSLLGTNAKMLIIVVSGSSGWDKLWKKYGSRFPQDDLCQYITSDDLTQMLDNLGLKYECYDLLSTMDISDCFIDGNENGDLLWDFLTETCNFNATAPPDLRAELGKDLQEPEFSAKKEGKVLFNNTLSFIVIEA

Structure (SMILES)	total and replicating (-) ZIKV vRNA levels in hNPCs (ZIKV (MR766 strain); 25 μM added at 24 h, 36 h or 48 h post-infection, additional 3 days)	total and replicating (-) strand ZIKV vRNAs in hNPCs from two additional donors (ZIKV (MR766 strain); 25 μM added at 24 h post-infection)	ZIKV vRNA in brain (ZIKV MR766 virus strain; HH 100 mg/kg/day subcutaneously from 12 h before infection, day 7 post-infection)	ZIKV infection of adult cortex (immunohistochemistry) (ZIKV MR766 virus strain; [2])	ZIKV infection of adult hippocampus (immunohistochemistry) (ZIKV MR766 virus strain; [2])	ZIKV infection of adult striatum (immunohistochemistry) (ZIKV MR766 virus strain; [2])	cellular apoptosis (CAS3) associated with ZIKV infection in the cortex (ZIKV MR766 virus strain; [2])	inhibition of histamine-N-methyltransferase [1]
CN1CCC2=C[C@H](O)[C@H]3OC(=O)c4cc5c(cc4[C@H]3[C@@H]21)OCO5 [HH, hippeastrine hydrobromide]	successfully suppressed	consistently suppressed	significantly lower level	fully inhibits infection of adult cortex; also recorded: completely inhibited	completely inhibits infection of the adult hippocampus; also recorded: completely inhibited	fully inhibits infection of the adult striatum; also recorded: completely inhibited	rescues cellular apoptosis; also recorded: completely inhibited	–
CCN(CC)Cc1cc(Nc2ccnc3cc(Cl)ccc23)ccc1O [AQ, amodiaquine dihydrochloride dihydrate]	–	–	–	–	–	–	–	potent inhibitor
